This passage reports IC50 and Kd results from patent publication US20230096028A1, “BICYCLIC HETEROCYCLYL COMPOUNDS AND USES THEREOF” (Revolution Medicines, Inc., priority 2019, published 2023).

Where only a bound is given, the exact number is not on record here.

Assay [1] relates to PC-9 cells (EGFR Ex19Del). Description: Potency Assay: pERK (SOS1 pERK IC50 Assay, AlphaLISA SureFire Ultra p-ERK1/2). Type of assay: cell-based. The following applies: Homo sapiens; PC-9 cells (EGFR Ex19Del), 1 hour incubation, AlphaLISA p-ERK1/2; read-out: SOS1 pERK IC50. The method, boiled down: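 PC-9 (EGFR Ex19Del) cells plated overnight, then treated 1 h at 37° C. with 10-point 3-fold dilutions (top 10 μM final) in duplicate. Lysate pERK1/2 measured by AlphaLISA SureFire Ultra; IC50 from 4-parameter sigmoidal fit.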
A general note: Alpha assays give light when donor and acceptor beads are brought close together.

Assay [2] concerns the target T1, SOS1 catalytic domain (residues 564-1049) (Homo sapiens, UniProt Q07889).
T1 sequence (Q07889 564-1049): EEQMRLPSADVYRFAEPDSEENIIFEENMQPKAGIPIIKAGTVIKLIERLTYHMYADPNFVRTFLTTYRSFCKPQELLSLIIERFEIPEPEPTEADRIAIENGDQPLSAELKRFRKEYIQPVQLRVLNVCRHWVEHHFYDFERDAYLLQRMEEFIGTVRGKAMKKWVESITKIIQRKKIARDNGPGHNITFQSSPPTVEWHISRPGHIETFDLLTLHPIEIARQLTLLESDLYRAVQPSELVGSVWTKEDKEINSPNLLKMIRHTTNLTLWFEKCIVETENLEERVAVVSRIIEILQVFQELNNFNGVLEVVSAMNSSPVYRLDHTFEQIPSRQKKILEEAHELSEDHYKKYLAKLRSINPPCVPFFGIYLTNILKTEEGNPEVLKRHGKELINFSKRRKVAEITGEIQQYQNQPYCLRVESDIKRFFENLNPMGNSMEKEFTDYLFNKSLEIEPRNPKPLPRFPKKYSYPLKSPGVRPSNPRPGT
Description: Potency Assay: binding affinity to SOS1 using Surface Plasmon Resonance (SPR). Also noted: SOS1 catalytic domain (residues 564-1049) immobilized on a sensor chip. The settings on record: immobilized SOS1 catalytic domain (residues 564-1049), read-out: SOS1 SPR Equilibrium Kd. In short, it runs like this: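 Avi-tagged SOS1 catalytic domain captured on streptavidin chip (~6000 RU) in 0.01 M HEPES, 0.15 M NaCl, 0.05% P20. Compound dilution series flowed at 50 μL/min for association, then buffer for dissociation, with double reference subtraction. Kd derived from end-of-association binding response plotted against concentration.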

The target in assay [3] is T1, SOS1 catalytic domain (residues 564-1049). Description: Mode of Action Assay: inhibition of SOS1 nucleotide exchange activity (SOS1 TR-FRET IC50 Assay).

Turning to `C[C@@H](Nc1nc(Cl)nc2c1CN(C(=O)[C@H]1CNCCO1)C2)c1cccc(C(F)F)c1F` [Example 307], the IC50 in assay [1] and in assay [3] was < 1 µM in each case. Moreover, the Kd – broadly, the concentration at which binding is half-saturated – in assay [2] was < 0.4 µM.
For `C[C@@H](Nc1nc(Cl)nc2c1CN(C(=O)C1(C)CCOCC1)C2)c1cccc(C(F)(F)CO)c1` [Example 240], the IC50 in assay [1] and in assay [3] was < 1 µM each time. Further, in assay [2], the Kd is < 0.4 µM.
Consider `COc1ccc(CC(=O)N2Cc3nc(Cl)nc(N[C@H](C)c4cc(N)cc(C(F)(F)F)c4)c3C2)cc1OC` [Example 102], for which the IC50 (in general, the midpoint of a concentration-inhibition curve) is < 1 µM in assay [1] and > 1 µM in assay [3]. The Kd in assay [2] was > 0.4 µM.
Take `COc1cc(C(=O)N2Cc3nc(Cl)nc(N[C@H](C)c4cc(N)cc(C(F)(F)F)c4)c3C2)ncn1` [Example 62]: the figures for the IC50 in assay [1] and in assay [3] were < 1 µM and > 1 µM, respectively. In assay [2], the Kd is < 0.4 µM.
Take `C[C@@H](Nc1nc(Cl)nc2c1CN(C(=O)c1ccnnc1)C2)c1cc(N)cc(C(F)(F)F)c1` [Example 78]: the IC50 in assay [1] and in assay [3] was < 1 µM throughout. For the same molecule, the Kd in assay [2] was < 0.4 µM.
Regarding `C[C@@H](Nc1nc(Cl)nc2c1CN(C1CCOCC1)C2=O)c1cc(N)cc(C(F)(F)F)c1` [Example 30, 4-[[(1R)-1-[3-amino-5-(trifluoromethyl)phenyl]ethyl]amino]-2-chloro-6-tetrahydropyran-4-yl-5H-pyrrolo[3,4-d]pyrimidin-7-one], the IC50 was > 1 µM in assay [1] and < 1 µM in assay [3]. In addition, in assay [2], the Kd was < 0.4 µM.
Consider `Cc1c(C(F)F)cccc1[C@@H](C)Nc1nc(Cl)nc2c1CN(C(=O)N1CCOCC1)C2` [Example 492], for which the IC50 in assay [1] and in assay [3] was < 1 µM throughout. Also, in assay [2], the Kd was < 0.4 µM.
As to `COC1CC(N)(C(=O)N2Cc3nc(Cl)nc(N[C@H](C)c4cccc(C(F)F)c4F)c3C2)C1` (stereo partly drawn) [Example 289], the IC50 in assay [1] and in assay [3] was < 1 µM throughout. Moreover, the Kd in assay [2] is < 0.4 µM.
`C[C@@H](Nc1nc(Cl)nc2c1CC(C(=O)N1CCOCC1)CC2)c1cc(N)cc(C(F)(F)F)c1` (stereo partly drawn) [Example 165, N-[(1R)-1-[3-amino-5-(trifluoromethyl)phenyl]ethyl]-2-chloro-6-(morpholine-4-carbonyl)-5,6,7,8-tetrahydroquinazolin-4-amine]: the IC50 in assay [1] and in assay [3] was < 1 µM each time. In addition, the Kd in assay [2] is < 0.4 µM.
As for `C[C@@H](Nc1nc(Cl)nc2c1CN(C(=O)[C@@H]1COCCN1C)C2)c1cccc(C(F)F)c1F` [Example 321], the IC50 in assay [1] and in assay [3] was < 1 µM each time. The Kd in assay [2] is < 0.4 µM.
In the case of `C[C@@H](Nc1nc(CN2CCOCC2)nc2c1CN(C(=O)N1CCOCC1)C2)c1cc(N)cc(C(F)(F)F)c1` [Example 504, N-[(1R)-1-[3-amino-5-(trifluoromethyl)phenyl]ethyl]-2-[(morpholin-4-yl)-methyl]-6-(morpholine-4-carbonyl)-5H,6H,7H-pyrrolo[3,4-d]pyrimidin-4-amine], the figures for the IC50 in assay [1] and in assay [3] were > 1 µM and < 1 µM, respectively. Moreover, the Kd in assay [2] was > 0.4 µM.
On the same counts, the results for `C[C@@H](Nc1nc(Cl)nc2c1CN(C(=O)C1CNCCOC1)C2)c1cccc(C(F)F)c1F` (stereo partly drawn) [Example 293] are < 1 µM, < 1 µM and < 0.4 µM.
On the same counts, the results for `C[C@@H](Nc1nc(Cl)nc2c1CN(C(=O)N1CCNCC13COC3)C2)c1cccc(C(F)F)c1F` [Example 405] are > 1 µM, < 1 µM and < 0.4 µM.
On the same counts, the results for `C[C@@H](Nc1nc(Cl)nc2c1CN(C(=O)N1CCOc3ncccc31)C2)c1cccc(C(F)(F)F)c1` [Example 366] are < 1 µM, < 1 µM and < 0.4 µM.
As for `C[C@@H](Nc1nc(Cl)nc2c1CN(S(=O)(=O)N1CCN(C)CC1)CC2)c1cc(N)cc(C(F)(F)F)c1` [Example 184], the half-maximal inhibitory concentration (IC50) in assay [1] and in assay [3] was < 1 µM in each case. In assay [2], the Kd was < 0.4 µM.
In the case of `CNc1nc2c(c(N[C@H](C)c3cccc(C(F)F)c3F)n1)CN(C(=O)N1CCOCC1)C2` [Example 505, N4-[(1R)-1-[3-(difluoromethyl)-2-fluorophenyl]ethyl]-N2-methyl-6-(morpholine-4-carbonyl)-5H,6H,7H-pyrrolo[3,4-d]pyrimidine-2,4-diamine], the IC50 in assay [1] and in assay [3] was > 1 µM in each case. Further, in assay [2], the dissociation constant (Kd) was > 0.4 µM.
For `C[C@@H](Nc1nc(Cl)nc2c1CN(C(=O)N1CCOCC1)C2)c1cccc(C(F)(F)CO)c1` [Example 168, [2-chloro-4-[[(1R)-1-[3-(1,1-difluoro-2-hydroxy-ethyl)phenyl]ethyl]amino]-5,7-dihydropyrrolo[3,4-d]pyrimidin-6-yl]-morpholino-methanone], the IC50 in assay [1] and in assay [3] was < 1 µM in each case. The Kd in assay [2] was < 0.4 µM.
For `C[C@@H](Nc1nc(Cl)nc2c1CN(C(=O)N1CCOC(F)(F)C1)C2)c1cccc(C(F)F)c1F` [Example 411], the IC50 in assay [1] and in assay [3] was < 1 µM throughout. For the same molecule, the Kd in assay [2] was < 0.4 µM.
Regarding `C[C@@H](Nc1nc(Cl)nc2c1CN(C(=O)c1cccnn1)C2)c1cc(N)cc(C(F)(F)F)c1` [Example 71], the IC50 in assay [1] and in assay [3] was < 1 µM in each case. Further, in assay [2], the Kd is < 0.4 µM.
As to `C[C@@H](Nc1nc(Cl)nc2c1CN(C(=O)c1cnc[nH]1)C2)c1cc(N)cc(C(F)(F)F)c1` [Example 108], the IC50 in assay [1] and in assay [3] was < 1 µM in each case. In addition, in assay [2], the Kd was < 0.4 µM.
With `COc1ccc2c(c1)OCCN2C(=O)N1Cc2nc(Cl)nc(N[C@H](C)c3cc(N)cc(C(F)(F)F)c3)c2C1` [Example 140], the IC50 is < 1 µM in assay [1] and > 1 µM in assay [3]. Moreover, in assay [2], the Kd was < 0.4 µM.
Take `C[C@@H]1CN(C(=O)N2Cc3nc(Cl)nc(N[C@H](C)c4cccc(C(F)F)c4F)c3C2)C[C@H](C)N1C` [Example 397]: the half-inhibitory concentration (IC50) in assay [1] and in assay [3] was < 1 µM each time. Moreover, the Kd in assay [2] is < 0.4 µM.
Consider `C[C@@H](Nc1nc(Cl)nc2c1CN(C(=O)N1CCOCC1)C2)c1cccc(C(C)(F)F)c1` [Example 467, [2-chloro-4-[[(1R)-1-[3-(1,1-difluoroethyl)phenyl]ethyl]amino]-5,7-dihydropyrrolo[3,4-d]pyrimidin-6-yl]-morpholino-methanone], for which the IC50 was > 1 µM in assay [1] and < 1 µM in assay [3]. Further, the Kd in assay [2] was < 0.4 µM.
The corresponding values for `C[C@@H](Nc1nc(Cl)nc2c1CN(C(=O)[C@]13CN[C@H](CO1)C3)C2)c1cccc(C(F)F)c1F` [Example 290] are < 1 µM, < 1 µM and < 0.4 µM.
The corresponding values for `C[C@@H](Nc1nc(Cl)nc2c1CN(C(=O)c1ncccn1)CC2)c1cc(N)cc(C(F)(F)F)c1` [Example 236] are > 1 µM, > 1 µM and > 0.4 µM.
On the same counts, the results for `C[C@@H](Nc1nc(Cl)nc2c1CN(C(=O)N1CC3CCC(C1)N3C1COC1)C2)c1cccc(C(F)F)c1F` [Example 423] are < 1 µM, < 1 µM and < 0.4 µM.
